# Biological target: T1, KMO mouse enzyme (Mus musculus, UniProt Q91WN4)
# T1 construct: KMO enzyme prepared at Evotec from mouse liver (4-6 weeks old) via mitochondria isolation; from tissue; host or cells: mouse liver (4-6 weeks old), isolated mitochondria
# Experiment: KMO mouse enzyme assay: L-Kynurenine hydroxylation to 3OH-KYN by LC/MS
# Assay type: biochemical
# Details: compound at 10 μM; KMO from mouse liver mitochondria; read-out: INH.Mouse @ 10 μM
# Method: A method of monitoring L-Kynurenine (KYN) hydroxylation to form 3-Hydroxy-Kynurenine (3OH-KYN) by LC/MS is described. Product is quantified by multiple reaction monitoring (MRM method).
# • Compound: Stock concentrations: 10 mM in 100% DMSO • Enzyme: KMO enzyme prepared at Evotec from mouse liver (4-6 weeks old) via mitochondria isolation as described in the literature • Substrate: L-Kynurenine (Sigma: Cat# K3750, stock concentration: 10 mM in 100 mM potassium phosphate buffer, pH 7.4)
# • Buffer: 100 mM potassium phosphate, pH 7.4, 200 μM NADPH, 0.4 U/ml G6P-DH (Glucose 6-phosphate Dehydrogenase), 3 mM G6P (D-Glucose 6-phosphate) • Assay Volume: 40 μl • Plate Format: 384 well plate, transparent (Matrix) • Read-Out: product (3OH-KYN) quantification using product specific MRM • Reader: LC/MS/MS
# • prepare serial dilution (factor 3) of compound in 100% DMSO (top concentration=10 mM, 100% DMSO) • [8 points: 10 mM; 3.33 mM; 1.11 mM; 0.37 mM; 0.12 mM; 0.04 mM; 0.0137 mM; 0.0045 mM, 0.0015 mM] • prepare […] solution of each compound concentration (top concentration 300 μM, 3% DMSO) in assay buffer • [concentrations: 300 μM; 100 μM; 33.3 μM; 11.1 μM; 3.70 μM; 1.23 μM; 0.41 μM; 0.137 μM] • prepare substrate (10 mM) at concentration of 1 mM in assay buffer • assay mix: 4 μl compound/well of each concentration+24 μl assaybuffer/well+8 μl KMO mouse enzyme+4 μl 1 mM substrate (final concentration=100 μM) • [final compound top concentration: 30 μM; 0.3% DMSO] • [final compound bottom concentration: 0.0137 μM; 0.3% DMSO] • positive control: 4 μl 50 μM FCE28833 in assay buffer, 0.5% DMSO [final assay concentration=5 μM]+24 μl assaybuffer/well+8 μl KMO mouse enzyme+4 μl 1 mM substrate [final concentration=100 μM] • negative control: 28 μl assay buffer/well+8 μl KMO mouse enzyme+4 μl 1 mM substrate [final concentration=100 μM] • incubate 40 min at RT • add 40 μl/well 10% trichloro acetic acid in water to stop the assay and precipitate protein • centrifuge plate for 3 min at 4000 rpm • product detection by LC/MS (injection of 20 μl/well, 2 fold overfill of the 10 μl sample loop) Data analysis: IC50's are calculated using automated fitting algorithm (A+Analysis).
# Using procedures similar to those described herein, the following compounds were assayed for activity.
# T1 sequence (Q91WN4 whole entry): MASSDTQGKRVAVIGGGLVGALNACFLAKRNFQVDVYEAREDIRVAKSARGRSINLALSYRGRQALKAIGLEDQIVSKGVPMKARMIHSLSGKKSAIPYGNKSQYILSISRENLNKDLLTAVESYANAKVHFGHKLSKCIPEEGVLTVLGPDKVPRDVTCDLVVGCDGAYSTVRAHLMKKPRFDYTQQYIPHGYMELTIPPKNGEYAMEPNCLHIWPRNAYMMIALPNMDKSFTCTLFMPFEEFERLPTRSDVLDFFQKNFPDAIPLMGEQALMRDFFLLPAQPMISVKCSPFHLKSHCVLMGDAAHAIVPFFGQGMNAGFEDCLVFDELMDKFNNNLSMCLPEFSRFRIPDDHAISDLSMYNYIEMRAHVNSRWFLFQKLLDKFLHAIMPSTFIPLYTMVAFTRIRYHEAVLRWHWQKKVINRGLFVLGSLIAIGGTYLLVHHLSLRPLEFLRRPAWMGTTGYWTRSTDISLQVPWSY
row,Compound,inhibition at 10 µM [%]
1,"CON=C(CCc1noc(C)n1)c1ccc(Cl)c(Cl)c1 (single isomer, unassigned) [1-(3,4-Dichloro-phenyl)-3-(5-methyl-[1,2,4]oxadiazol-3-yl)-propan-1-one O-methyl-oxime]",87.2
2,"CON=C(CCc1nc2cnccc2[nH]1)c1ccc(Cl)c(Cl)c1 [1-(3,4-Dichloro-phenyl)-3-(1H-imidazo[4,5-c]pyridin-2-yl)-propan-1-one O-methyl-oxime]",64.3
3,"CO/N=C(\CCc1nn[nH]n1)c1ccc(Cl)c(Cl)c1 [1-(3,4-Dichloro-phenyl)-3-(2H-tetrazol-5-yl)-propan-1-one O-methyl-oxime]",96.4
4,"CON=C(CCC(=O)N1CCC(C)CC1)c1ccc(Cl)c(Cl)c1 [1-(3,4-Dichloro-phenyl)-4-(4-methyl-piperidin-1-yl)-butane-1,4-dione 1-(O-methyl-oxime)]",57.3
5,"CO/N=C(\CCC(=O)N1CCOCC1)c1ccc(Cl)c(Cl)c1 [1-(3,4-Dichloro-phenyl)-4-morpholin-4-yl-butane-1,4-dione 1-(O-methyl-oxime)]",63.4
6,"CON=C(CCC(=O)N1CCCCC1)c1ccc(Cl)c(Cl)c1 [1-(3,4-Dichloro-phenyl)-4-piperidin-1-yl-butane-1,4-dione 1-(O-methyl-oxime)]",60.4
7,"CON=C(CCC(C)=O)c1ccc(Cl)c(Cl)c1 [1-(3,4-Dichloro-phenyl)-pentane-1,4-dione 1-(O-methyl-oxime)]",77.7
8,"CCO/N=C(\CCC(=O)OC)c1ccc(Cl)c(Cl)c1 [4-(3,4-Dichloro-phenyl)-4-ethoxyimino-butyric acid methyl ester]",107
9,"CCO/N=C(\CCC(=O)O)c1ccc(Cl)c(Cl)c1 [4-(3,4-Dichloro-phenyl)-4-ethoxyimino-butyric acid]",107
10,"COC(=O)CCC(=NO)c1ccc(Cl)c(Cl)c1 [4-(3,4-Dichloro-phenyl)-4-hydroxyimino-butyric acid methyl ester]",99.4
11,"CO/N=C(\CCC(=O)N(C)C)c1ccc(Cl)c(Cl)c1 [4-(3,4-Dichloro-phenyl)-4-methoxyimino-N,N-dimethyl-butyramide]",64.3
12,"CO/N=C(\CCC(=O)Nc1cnn(C)c1)c1ccc(Cl)c(Cl)c1 [4-(3,4-Dichloro-phenyl)-4-methoxyimino-N-(1-methyl-1H-pyrazol-4-yl)-butyramide]",90.5
13,"CON=C(CCC(=O)Nc1c(C)cc(C)nc1C)c1ccc(Cl)c(Cl)c1 [4-(3,4-Dichloro-phenyl)-4-methoxyimino-N-(2,4,6-trimethyl-pyridin-3-yl)-butyramide]",66.3
14,"CON=C(CCC(=O)Nc1cnc(C)nc1)c1ccc(Cl)c(Cl)c1 [4-(3,4-Dichloro-phenyl)-4-methoxyimino-N-(2-methyl-pyrimidin-5-yl)-butyramide]",90.4
15,"CON=C(CCC(=O)NCCN1CCOCC1)c1ccc(Cl)c(Cl)c1 [4-(3,4-Dichloro-phenyl)-4-methoxyimino-N-(2-morpholin-4-yl-ethyl)-butyramide]",54.6
16,"CON=C(CCC(=O)Nc1cnccc1C)c1ccc(Cl)c(Cl)c1 [4-(3,4-Dichloro-phenyl)-4-methoxyimino-N-(4-methyl-pyridin-3-yl)-butyramide]",93.9
17,"CON=C(CCC(=O)Nc1cncc(C)c1)c1ccc(Cl)c(Cl)c1 [4-(3,4-Dichloro-phenyl)-4-methoxyimino-N-(5-methyl-pyridin-3-yl)-butyramide]",102
18,"CON=C(CCC(=O)Nc1ccc(C)nn1)c1ccc(Cl)c(Cl)c1 [4-(3,4-Dichloro-phenyl)-4-methoxyimino-N-(6-methyl-pyridazin-3-yl)-butyramide]",90.2
19,"CON=C(CCC(=O)Nc1ccc(C)nc1)c1ccc(Cl)c(Cl)c1 [4-(3,4-Dichloro-phenyl)-4-methoxyimino-N-(6-methyl-pyridin-3-yl)-butyramide]",82.9
20,"CON=C(CCC(=O)Nc1nncs1)c1ccc(Cl)c(Cl)c1 [4-(3,4-Dichloro-phenyl)-4-methoxyimino-N-[1,3,4]thiadiazol-2-yl-butyramide]",95.2
21,"CON=C(CCC(=O)N(C)c1cccnc1)c1ccc(Cl)c(Cl)c1 [4-(3,4-Dichloro-phenyl)-4-methoxyimino-N-methyl-N-pyridin-3-yl-butyramide]",62.5

# The remaining lines, values ahead:
row,inhibition at 10 µM [%],Compound
1,93.7,"CNC(=O)CC/C(=N\OC)c1ccc(Cl)c(Cl)c1 [4-(3,4-Dichloro-phenyl)-4-methoxyimino-N-methyl-butyramide]"
2,103,"CON=C(CCC(=O)Nc1ccccc1)c1ccc(Cl)c(Cl)c1 [4-(3,4-Dichloro-phenyl)-4-methoxyimino-N-phenyl-butyramide]"
3,98,"CON=C(CCC(=O)Nc1cnccn1)c1ccc(Cl)c(Cl)c1 [4-(3,4-Dichloro-phenyl)-4-methoxyimino-N-pyrazin-2-yl-butyramide]"
4,101,"CON=C(CCC(=O)Nc1cccnn1)c1ccc(Cl)c(Cl)c1 [4-(3,4-Dichloro-phenyl)-4-methoxyimino-N-pyridazin-3-yl-butyramide]"
5,104,"CO/N=C(\CCC(=O)Nc1ccccn1)c1ccc(Cl)c(Cl)c1 [4-(3,4-Dichloro-phenyl)-4-methoxyimino-N-pyridin-2-yl-butyramide]"
6,103,"CON=C(CCC(=O)Nc1cccnc1)c1ccc(Cl)c(Cl)c1 [4-(3,4-Dichloro-phenyl)-4-methoxyimino-N-pyridin-3-yl-butyramide]"
7,77.1,"CON=C(CCC(=O)NCc1cccnc1)c1ccc(Cl)c(Cl)c1 [4-(3,4-Dichloro-phenyl)-4-methoxyimino-N-pyridin-3-ylmethyl-butyramide]"
8,76.5,"CON=C(CCC(=O)Nc1ccncc1)c1ccc(Cl)c(Cl)c1 [4-(3,4-Dichloro-phenyl)-4-methoxyimino-N-pyridin-4-yl-butyramide]"
9,101,"CON=C(CCC(=O)Nc1ncccn1)c1ccc(Cl)c(Cl)c1 [4-(3,4-Dichloro-phenyl)-4-methoxyimino-N-pyrimidin-2-yl-butyramide]"
10,98.5,"CON=C(CCC(=O)Nc1cncnc1)c1ccc(Cl)c(Cl)c1 [4-(3,4-Dichloro-phenyl)-4-methoxyimino-N-pyrimidin-5-yl-butyramide]"
11,74.3,"CON=C(CCC(=O)NC1CCNC1)c1ccc(Cl)c(Cl)c1 (centres unmarked) [4-(3,4-Dichloro-phenyl)-4-methoxyimino-N-pyrrolidin-3-yl-butyramide]"
12,94.9,"CON=C(CCC(N)=O)c1ccc(Cl)c(Cl)c1 [4-(3,4-Dichloro-phenyl)-4-methoxyimino-butyramide]"
13,102,"CON=C(CCC(=O)OC[C@H](O)[C@H]1OC(=O)C(O)=C1O)c1ccc(Cl)c(Cl)c1 [4-(3,4-Dichloro-phenyl)-4-methoxyimino-butyric acid (S)-2-((R)-3,4-dihydroxy-5-oxo-2,5-dihydro-furan-2-yl)-2-hydroxy-ethyl ester]"
14,102,"CO/N=C(\CCC(=O)OC1CCC1)c1ccc(Cl)c(Cl)c1 [4-(3,4-Dichloro-phenyl)-4-methoxyimino-butyric acid cyclobutyl ester]"
15,102,"CO/N=C(\CCC(=O)OC1CCCC1)c1ccc(Cl)c(Cl)c1 [4-(3,4-Dichloro-phenyl)-4-methoxyimino-butyric acid cyclopentyl ester]"
16,102,"CO/N=C(\CCC(=O)OC(C)C)c1ccc(Cl)c(Cl)c1 [4-(3,4-Dichloro-phenyl)-4-methoxyimino-butyric acid isopropyl ester]"
17,106,"CO/N=C(\CCC(=O)OC)c1ccc(Cl)c(Cl)c1 [4-(3,4-Dichloro-phenyl)-4-methoxyimino-butyric acid methyl ester]"
18,105,"CO/N=C(\CCC(=O)Oc1cccnc1)c1ccc(Cl)c(Cl)c1 [4-(3,4-Dichloro-phenyl)-4-methoxyimino-butyric acid pyridin-3-yl ester]"
19,102,"CO/N=C(\CCC(=O)OC1CCOCC1)c1ccc(Cl)c(Cl)c1 [4-(3,4-Dichloro-phenyl)-4-methoxyimino-butyric acid tetrahydro-pyran-4-yl ester]"
20,106,"CO/N=C(\CCC(=O)O)c1ccc(Cl)c(Cl)c1 [4-(3,4-Dichloro-phenyl)-4-methoxyimino-butyric acid]"

# Source: patent publication US20110230428A1, “CERTAIN KYNURENINE-3-MONOOXYGENASE INHIBITORS, PHARMACEUTICAL COMPOSITIONS, AND METHODS OF USE THEREOF” (priority 2008, published 2011)
